# Several values for one entry are separate records, joined by “and”; a condition that tells them apart may be missing. Equal entries are not always repeated.
# Legend:
# [1] = system: peptide corresponding to the peptide-BSA conjugate used for injection; test: ELISA for anti-peptide antibodies (individual mouse sera 1:100); format: in vivo, mice; conditions: for Average Absorbance Values of sera for tested peptides, Day 14 / Average Absorbance Values of sera for tested peptides, Day 29 / Average Absorbance Values of sera for tested peptides, Day 42 / Average Absorbance Values of sera for tested peptides, Pre: group average; for Average Absorbance Values of sera for tested peptides, Day 14 / Average Absorbance Values of sera for tested peptides, Day 29 / Average Absorbance Values of sera for tested peptides, Day 42 / Average Absorbance Values of sera for tested peptides, Pre / Individual absorbancy values of sera for tested peptides, Day 14 / Individual absorbancy values of sera for tested peptides, Day 29 / Individual absorbancy values of sera for tested peptides, Day 42: mice; for Average Absorbance Values of sera for tested peptides, Pre / Individual absorbancy values of sera for tested peptides, Pre: pre-bleed; for Individual absorbancy values of sera for tested peptides, Pre: mice injected with peptide-BSA conjugate, absorbance 450 nm; for Individual absorbancy values of sera for tested peptides, Pre / Individual absorbancy values of sera for tested peptides, Day 14 / Individual absorbancy values of sera for tested peptides, Day 29 / Individual absorbancy values of sera for tested peptides, Day 42: sera 1:100
# Protocol: Individual sera were tested at a final dilution of 1:100 (in PBS-T) on Nunc Maxisorp® plates coated with the peptide corresponding to the peptide-BSA conjugate used for injection, at a concentration of 1 μg/ml in PBS (100 μl/well). One hundred microliters of diluted sera were reacted on the coated plate for 30 to 60 min at room temperature, and unbound material was removed by washing three times with PBS-T. Anti-peptide antibodies were detected with peroxidase-labeled goat anti-mouse IgG (γ-specific), diluted 1:10000 in PBS-T (100 μl/well; Jackson ImmunoResearch Laboratories, Inc., West Grove, Pa., USA). Following 30-min incubation, the wells were washed five times with PBS-T to removed unbound material and 100 μl of substrate (TMB; Kirkegaard & Perry Laboratories, Inc., Gaithersburg, Md., USA) was added to each well. The reaction was allowed to proceed for 15 min in the dark and stopped by addition of 100 μl of TMB Stop Solution per well (Kirkegaard & Perry). Absorbance was determined at 450 nm.
# [2] = system: live Wuhan (Influenza A/Wuhan/359/95, H3N2); test: ELISA for anti-Wuhan antibodies (mouse sera 1:100); format: in vivo, mice; conditions: sera 1:100; for Absorbance values for individual sera tested on influenzavirus strain Wuhan, Pre: mice, pre-bleed; for Anti-Wuhan Absorbance Day 42 (group average) / Anti-Wuhan Absorbance Pre-Bleed (group average): averaged results
# [3] = system: IL-4 induction in splenocytes; format: cell-based; conditions: mice immunized with peptide-BSA conjugates; 72 h in vitro treatment
# [4] = system: Influenza H1N1, H3N2, and H5N1; conditions: in vivo
# [5] = system: IFN-γ induction in splenocytes; format: cell-based; conditions: mice immunized with peptide-BSA conjugates; 72 h in vitro treatment
# [6] = system: live H3N2 virus; format: in vivo, cotton rats (Sigmodon hispidus); conditions: rat, in vivo
# [7] = system: live H1N1 virus; design: species or system cotton rats (Sigmodon hispidus); conditions: rat, in vivo
# [8] = system: Influenza H3N2 (Wuhan); design: species or system cotton rats (Sigmodon hispidus); conditions: rat, in vivo
# [9] = 5 μg per injection, listed as 1911
Sequence,"Average Absorbance Values of sera for tested peptides, Day 14 ([1]; 5 μg per injection)","Average Absorbance Values of sera for tested peptides, Day 29 ([1]; 5 μg per injection)","Average Absorbance Values of sera for tested peptides, Day 42 ([1]; 5 μg per injection)","Average Absorbance Values of sera for tested peptides, Pre ([1]; 5 μg per injection)","Average Absorbance Values of sera for tested peptides, Day 14 ([1]; 20 μg per injection)","Average Absorbance Values of sera for tested peptides, Day 29 ([1]; 20 μg per injection)","Average Absorbance Values of sera for tested peptides, Day 42 ([1]; 20 μg per injection)","Average Absorbance Values of sera for tested peptides, Pre ([1]; 20 μg per injection)","Individual absorbancy values of sera for tested peptides, Pre ([1]; 5 μg per injection)","Individual absorbancy values of sera for tested peptides, Pre ([1]; 20 μg per injection)","Individual absorbancy values of sera for tested peptides, Day 14 ([1]; 5 μg per injection)","Individual absorbancy values of sera for tested peptides, Day 29 ([1]; 5 μg per injection)","Individual absorbancy values of sera for tested peptides, Day 42 ([1]; 5 μg per injection)","Individual absorbancy values of sera for tested peptides, Day 14 ([1]; 20 μg per injection)","Individual absorbancy values of sera for tested peptides, Day 29 ([1]; 20 μg per injection)","Individual absorbancy values of sera for tested peptides, Day 42 ([1]; 20 μg per injection)","Absorbance values for individual sera tested on influenzavirus strain Wuhan, Pre ([2]; 5 μg per injection)","Absorbance values for individual sera tested on influenzavirus strain Wuhan, Pre ([2]; 20 μg per injection)",Anti-Wuhan Absorbance Day 42 (individual mice) ([2]; dose per inject 5 μg),Anti-Wuhan Absorbance Pre-Bleed (individual mice) ([2]; dose per inject 5 μg),further results
GNLFIAPGNLFIAPQYIKANSKFIGITEGNLFIAP [Peptide 5907],0.077,0.107,0.134,0.078,0.080,0.097,0.165,0.083,0.080 and 0.073 and 0.084 and 0.075,0.065 and 0.077 and 0.082 and 0.108,0.096 and 0.061 and 0.079 and 0.073,0.160 and 0.098 and 0.099 and 0.071,0.165 and 0.099 and 0.139,0.069 and 0.072 and 0.088 and 0.090,0.073 and 0.080 and 0.141 and 0.093,0.114 and 0.161 and 0.230 and 0.156,0.084 and 0.062 and 0.068 and 0.063,0.097 and 0.102 and 0.071 and 0.091,0.212 and 0.082 and 0.250 and 0.039,0.084 and 0.062 and 0.068 and 0.063,"Anti-Wuhan Absorbance Day 42 (individual mice) ([2]; dose per inject 20 μg): 0.394 and 0.174 and 0.119 and 0.224; Anti-Wuhan Absorbance Pre-Bleed (individual mice) ([2]; dose per inject 20 μg): 0.087 and 0.102 and 0.071 and 0.091; Anti-Wuhan Absorbance Day 42 (group average) ([2]; dose per injection 5 μg): 0.146; Anti-Wuhan Absorbance Pre-Bleed (group average) ([2]; dose per injection 5 μg): 0.069; Anti-Wuhan Absorbance Day 42 (group average) ([2]; dose per injection 20 μg): 0.227; Anti-Wuhan Absorbance Pre-Bleed (group average) ([2]; dose per injection 20 μg): 0.088; IL-4 response of spleen cell supernatants (in words) [3]: below the result of the untreated control; immune response against Influenza H1N1, H3N2, and H5N1 [4]: raises an immune response"
HYEECSCY [Peptide 5911],0.264,0.213,0.347,0.156,0.171,0.229,0.342,0.132,0.126 and 0.187 and 0.137,0.099 and 0.109 and 0.151 and 0.121,0.184 and 0.503 and 0.154,0.201 and 0.303 and 0.188,0.392 and 0.497 and 0.300,0.102 and 0.136 and 0.106 and 0.123,0.145 and 0.240 and 0.152 and 0.170,0.180 and 0.304 and 0.218 and 0.158,0.060 and 0.073 and 0.063 and 0.067,0.065 and 0.069 and 0.084 and 0.070,0.154 and 0.174 and 0.136 and 0.165,0.067 and 0.060 and 0.073 and 0.063,"Individual absorbancy values of sera for tested peptides, Pre [1, 9]: 0.174; Individual absorbancy values of sera for tested peptides, Day 14 [1, 9]: 0.216; Individual absorbancy values of sera for tested peptides, Day 29 [1, 9]: 0.161; Individual absorbancy values of sera for tested peptides, Day 42 [1, 9]: 0.199; Anti-Wuhan Absorbance Day 42 (individual mice) ([2]; dose per inject 20 μg): 0.747 and 0.194 and 0.154 and 0.134; Anti-Wuhan Absorbance Pre-Bleed (individual mice) ([2]; dose per inject 20 μg): 0.065 and 0.069 and 0.084 and 0.070; Anti-Wuhan Absorbance Day 42 (group average) ([2]; dose per injection 5 μg): 0.157; Anti-Wuhan Absorbance Pre-Bleed (group average) ([2]; dose per injection 5 μg): 0.065; Anti-Wuhan Absorbance Day 42 (group average) ([2]; dose per injection 20 μg): 0.307; Anti-Wuhan Absorbance Pre-Bleed (group average) ([2]; dose per injection 20 μg): 0.072; IFN-γ response of spleen cell supernatants (in words) [5]: Weaker responses"
SLLTEVETPIRNEWGLLTEVETPIRQYIKANSKFIGITE [PF2001],–,–,–,–,–,–,–,–,–,–,–,–,–,–,–,–,–,–,–,–,IgG titers to live H3N2 virus (ELISA) [6]: superior to two injections of M2e; IgG to live H3N2 virus after peptide boost of primed animals (ELISA) [6]: equivalent titer to group 6; IgG antibody against live H1N1 virus (ELISA) [7]: IgG antibody rises were also induced; viral inhibitory antibody to H3N2 after peptide boost [8]: boosted viral inhibitory antibody to H3N2

# — US9777045B2, “Immunogenic compositions and methods” (Longhorn Vaccines and Diagnostics, LLC, priority 2007, dated 2017)
